Experimental data: patent US20250026733A1, “DEUTERATED ANALOGS OF PYROLE INHIBITORS OF ERK, SYNTHESIS THEREOF AND INTERMEDIATES THERETO” (BIOMED VALLEY DISCOVERIES, INC., priority 2022, published 2025)
Like-named read-outs stand apart in the source and are kept apart here. Marks after values point to notes of the source that are not given here.

Key:
[1] = Pharmacokinetics and metabolite formation in rats; type: in vivo, rat; conditions: rat, in vivo; for AUC(0-t) / half-life: both sexes, po, 12.5 mg/kg; for AUC0-12 M2, percent change relative to Ulixertinib / AUC0-12 M3, percent change relative to Ulixertinib / AUC0-12 M6, percent change relative to Ulixertinib / AUC0-12 Parent, percent change relative to Ulixertinib / Half-life, percent change relative to Ulixertinib / longer mean half-life than ulixertinib: both
Description: Ulixertinib, Formulas 18A, 19A, and 21A were dosed twice daily (12 hours apart, ±30 minutes) for five consecutive days (10 doses/animal) to rats via oral gavage (PO). Each compound was administered at a dose of 12.5 mg/kg to 6 rats (3 male/3 female, N=6 rats/compound). Each compound was formulated in 1% (w/v) carboxymethylcellulose (CMC) in water at a concentration of 1.25 mg/mL. Following the second (p.m.) dose on Day 5, blood samples were collected from each rat at approximately 0.5, 1, 2, 4, 6, 8, and 12 hours post-dose. Blood samples were centrifuged to obtain plasma. Plasma samples were analyzed for concentrations of the dosed compounds and selected metabolites using an established LC-MS/MS method. The lower limit of quantitation of each compound was 1.00 ng/mL. The rat half-life values (determined by non-compartmental analysis using WinNonlin software) for each compound are shown in Table 7, and the areas under curve from time 0 to hour 12 (AUC0-12), calculated using the linear trapezoidal rule, for each dosed compound and selected metabolites are presented in Table 8.

[2] = system: pRSK/RSK in A375 cells; assay: A375 pRSK/RSK dose response study (ELISA); type: cell-based; conditions: Homo sapiens, A-375, pRSK and total RSK ELISA
Description: A375 pRSK/RSK Dose Response Study
Briefly, A375 cells were plated at 30,000 cells/well in 2×96 well plates, allowed to recover overnight, washed and fed fresh media the next day then treated with a dose response of the selected compounds. Following the determined pretreatment with the compounds at 37° C./5% CO2 the media was aspirated, and cells lysed with cold, complete MSD lysis buffer. pRSK and total RSK were analyzed using CST/PathScan pRSK and total RSK ELISAS according to the respective kit protocols. All samples were analyzed at 90% of remaining sample in pRSK and 10% of remaining sample in total RSK ELISA, which was performed following kit protocols.

[3] = system: phospho-ERK1/2 to total ERK1/2 in A375 cells; assay: A375 pERK/ERK dose response study (MSD); type: cell-based; conditions: Homo sapiens, A-375, ratio of phospho-ERK1/2 to total ERK1/2
Description: A375 pERK/ERK Dose Response Study:
Briefly, A375 cells were plated at 30,000 cells/well in 2×96 well plates, allowed to recover overnight, washed and fed fresh media the next day then treated with a dose response of the selected compounds. Following the determined pretreatment time with the compounds at 37° C./5% CO2, the media was aspirated, and cells lysed with cold, complete MESO Scale Discovery (MSD) lysis buffer. pERK and total ERK1/2 levels were measured using MESO Scale Discover Phospho(Thr202/Tyr204; Thr185/Tyr187)/Total ERK1/2 kits. The protocol and all reagents were provided in the kit. All wells were blocked with 150 μl Blocking Solution for one hour. […] of lysis buffer was added per well and incubated overnight at 4° C. Following the overnight incubation, the wells were washed three times with Tris Wash buffer, then […] of 1× Detection Antibody was added per well and incubated at room temperature for one hour with vigorous shaking. All wells were then washed three times with Tris Wash Buffer before 150 μl of 1× Read Buffer was added per well and the plates read using the MSD Sector Imager. Data were calculated as a ratio of phospho-ERK1/2 to total ERK1/2 to allow for normalization of the samples.

[4] = Half-life determination in human liver microsomes; type: in vitro ADME; conditions: for half-life at 1 μM: human, NADPH
Description: Human microsomes from a pool of 10 donors was obtained from a commercial source. Microsomes prepared in potassium phosphate buffer were spiked with ulixertinib, Formula 18, Formula 19, and Formula 21 individually in replicates of six at a final concentration of 1 μM. NADPH was used to initiate the experiment; a control of minus NADPH (minus cofactor) was also run in parallel to the human liver microsome stability. After spiking with test article, microsome replicates were placed in a 37° C. incubator with the following time course: 0, 5, 10, 15, 20, 30, 45 and 60 minutes. Samples were extracted with a protein precipitation quench consisting of ice cold acetonitrile containing internal standard (tolbutamide). Samples were analyzed for ulixertinib, Formula 18, Formula 19, and Formula 21. The half-lives of ulixertinib, Formula 18, Formula 19, and Formula 21 were characterized by the […] to determine the elimination rate (ke) and using the formula described below.
[formula] • ke (elimination rate): the slope of ln(percent remaining) vs time (in minutes)

[5] = system: A375 cells; assay: A375 proliferation assay (Cell TiterGlo); type: cell-based; conditions: Homo sapiens, A-375, 72 hours
Description: Mechanism of Action (MOA) Cell Assay—A375 Cell Proliferation, pERK/ERK and pRSK/RSK Analysis:
Briefly, A375 cells were plated at 10,000 cells/well in three 96 well plates. Plates were incubated overnight at 37° C. and allowed to recover. Cells were washed with 150 μL of DPBS and 90 μL of fresh media was added to each well. The cells were then treated with a dose response of the selected compounds. Compounds were diluted from stock concentrations (10 mM in DMSO). Serial dilutions were made in DMSO, yielding 8 total different concentrations per compound. At time of compound addition, the control plate was analyzed using Cell TiterGlo to set baseline for proliferation. Compound treated cells were allowed to grow at 37° C./5% CO2 for 72 hours then analyzed using Cell TiterGlo according to kit protocol.

[6] = Steady-state exposure of ulixertinib and metabolites in human subjects; type: in vivo; conditions: for % of total Ulixertinib related exposure: day 15, steady state; for AUC at 15 day: in vivo, day 15, non-isotopically enriched ulixertinib and related metabolites, read-out: Steady-State AUC (Mean ± SD)
Text: (§1) The steady state exposure levels of non-isotopically enriched parent ulixertinib and related metabolites in rat (day 5) and human subjects (day 15) is provided in TABLE 1 below: […]

[7] = Steady-state exposure of ulixertinib and metabolites in rat; type: in vivo; conditions: for % of total Ulixertinib related exposure: day 5, steady state; for AUC at 5 day: in vivo, day 5, non-isotopically enriched ulixertinib and related metabolites, read-out: Steady-State AUC (Mean ± SD)
Text: as §1

In the case of `Cl.[2H]C([2H])([2H])C([2H])(Nc1cc(-c2c[nH]c(C(=O)N[C@H](CO)c3cccc(Cl)c3)c2)c(Cl)cn1)C([2H])([2H])[2H]` [Formula 18A], the AUC(0-t) [1] is reported as 228000 ng·h/mL, the half-life [1] is reported as 4.18 h and the “AUC0-12 M2, percent change relative to Ulixertinib” value [1] is reported as “(−4%^a)”. For the same molecule, the “AUC0-12 M3, percent change relative to Ulixertinib” value [1] was “(−75%^a)”, the “AUC0-12 M6, percent change relative to Ulixertinib” value [1] was “(+25%^a)” and the “AUC0-12 Parent, percent change relative to Ulixertinib” value [1] was “(+32%^a)”. The “Half-life, percent change relative to Ulixertinib” value [1] was “(+14%^a)” and the “longer mean half-life than ulixertinib” value [1] was 14%.
For `Cl.[2H]C([2H])([2H])C(Nc1cc(-c2c[nH]c(C(=O)N[C@H](CO)c3cccc(Cl)c3)c2)c(Cl)cn1)C([2H])([2H])[2H]` [Formula 19A], the AUC(0-t) [1] was 199000 ng·h/mL, the half-life [1] was 4 h and the “AUC0-12 M2, percent change relative to Ulixertinib” value [1] was “(−17%^a)”. For the same molecule, the “AUC0-12 M3, percent change relative to Ulixertinib” value [1] was “(−84%^a)”, the “AUC0-12 M6, percent change relative to Ulixertinib” value [1] was “(−35%)” and the “AUC0-12 Parent, percent change relative to Ulixertinib” value [1] was “(+15%^a)”. For the same molecule, the “Half-life, percent change relative to Ulixertinib” value [1] was “(+9%^a)” and the “longer mean half-life than ulixertinib” value [1] was 9%.
For `[2H]C(C)(C)Nc1cc(-c2c[nH]c(C(=O)N[C@H](CO)c3cccc(Cl)c3)c2)c(Cl)cn1` [Formula 21, 4-(5-chloro-2-((propan-2-yl-2-d1)amino)pyridin-4-yl)-N-(1-(3-chlorophenyl)-2-hydroxyethyl)-1H-pyrrole-2-carboxamide], the IC50 [2] was 37 nM, the IC50 [3] was 64 nM and the “longer half-life than ulixertinib” value ([4]; Table 5) was 30%. The half-life at 1 μM ([4]; Rep 1, read-out: Half-life, t½, Rep 1) was 1.01 h, the half-life at 1 μM ([4]; Rep 2, read-out: Half-life, t½, Rep 2) was 1.26 h and the half-life at 1 μM ([4]; Rep 3, read-out: Half-life, t½, Rep 3) was 1.07 h. For the same molecule, the half-life at 1 μM ([4]; Rep 4, read-out: Half-life, t½, Rep 4) was 1.02 h, the half-life at 1 μM ([4]; Rep 5, read-out: Half-life, t½, Rep 5) was 0.992 h and the half-life at 1 μM ([4]; Rep 6, read-out: Half-life, t½, Rep 6) was 1.01 h. The half-life at 1 μM ([4]; six replicates, read-out: Half-life, t½, Mean ± SD) was 1.06 ± 0.102 h, the “Half-life, % change relative to ulixertinib” value ([4]; mean) was “(+30%)” and the IC50 [5] was 310 nM.
In the case of `C[C@H](CO)Nc1cc(-c2c[nH]c(C(=O)N[C@H](CO)c3cccc(Cl)c3)c2)c(Cl)cn1` [Formula 34], the “Formula 34/Ulixertinib steady-state AUC ratio” value ([6]; day 15) is reported as 1.3, the “% of total Ulixertinib related exposure” value [6] is reported as 49.9% and the AUC at 15 day [6] is reported as 39400 ± 12000 ng·h/mL. The “Formula 34/Ulixertinib steady-state AUC ratio” value ([7]; day 5) was 0.09, the “% of total Ulixertinib related exposure” value [7] was 8.1% and the AUC at 5 day [7] was 15900 ± 4700 ng·h/mL.
For `C[C@@H](CO)Nc1cc(-c2c[nH]c(C(=O)N[C@H](CO)c3cccc(Cl)c3)c2)c(Cl)cn1` [Formula 35], the “% of total Ulixertinib related exposure” value [6] was 4.3%, the AUC at 15 day [6] was 3400 ± 2300 ng·h/mL and the “% of total Ulixertinib related exposure” value [7] was 0.6%. The AUC at 5 day [7] was 1200 ± 200 ng·h/mL.
For `C[C@H](Nc1cc(-c2c[nH]c(C(=O)N[C@H](CO)c3cccc(Cl)c3)c2)c(Cl)cn1)C(=O)O` [Formula 37], the “% of total Ulixertinib related exposure” value [6] was 8.2%, the AUC at 15 day [6] was 6500 ± 5500 ng·h/mL and the “% of total Ulixertinib related exposure” value [7] was 0.2%. The AUC at 5 day [7] was 400 ± 200 ng·h/mL.
